The values that follow come from publication PMC6273065, “Synthesis, Molecular Modelling and Biological Evaluation of Novel Heterodimeric, Multiple Ligands Targeting Cholinesterases and Amyloid Beta” (Molecules, 2016).

The target in data set [1] is T1, EeAChE (Electrophorus electricus, UniProt O42275).
T1 construct: purchased Sigma–Aldrich
The data set is described as follows: biochemical. Type of data set: biochemical. The note with it: for EeAChE inhibitory activity in words: Ellman's assay. On the procedure:
(§1) Ellman’s method was used to determine the activity of the synthesized compounds against AChE from electric eel (Electrophorus electricus, EeAChE) and BuChE from equine serum (EqBuChE).
(§2) All assays were performed in 0.1 M phosphate buffer pH 8.0. The tested compounds or water in a blank sample (25 µL) were incubated with the enzyme (20 µL) for 5 min at 25 °C in buffer (765 µL) prior to starting the reaction. Then, DTNB (20 µL) and ATC (20 µL) were added. […] Each condition was measured in triplicate. The percentages of enzyme inhibition were calculated from the equation 100%—Ai/A0 × 100%, where Ai is the absorbance of a sample with an inhibitor and A0 is the absorbance of a blank sample (100% activity of the enzyme). The IC50 values were calculated using GraphPad Prism 5. Data is expressed as mean ± SEM.
For orientation: DTNB colorimetry detects thiols as they appear.

Data set [2] deals with T2, EqBuChE (Equus caballus, UniProt P81908).
T2 construct: BuChE from equine serum (EqBuChE, Sigma–Aldrich); purchased Sigma–Aldrich; host or cells: equine serum
T2 sequence (P81908 whole entry): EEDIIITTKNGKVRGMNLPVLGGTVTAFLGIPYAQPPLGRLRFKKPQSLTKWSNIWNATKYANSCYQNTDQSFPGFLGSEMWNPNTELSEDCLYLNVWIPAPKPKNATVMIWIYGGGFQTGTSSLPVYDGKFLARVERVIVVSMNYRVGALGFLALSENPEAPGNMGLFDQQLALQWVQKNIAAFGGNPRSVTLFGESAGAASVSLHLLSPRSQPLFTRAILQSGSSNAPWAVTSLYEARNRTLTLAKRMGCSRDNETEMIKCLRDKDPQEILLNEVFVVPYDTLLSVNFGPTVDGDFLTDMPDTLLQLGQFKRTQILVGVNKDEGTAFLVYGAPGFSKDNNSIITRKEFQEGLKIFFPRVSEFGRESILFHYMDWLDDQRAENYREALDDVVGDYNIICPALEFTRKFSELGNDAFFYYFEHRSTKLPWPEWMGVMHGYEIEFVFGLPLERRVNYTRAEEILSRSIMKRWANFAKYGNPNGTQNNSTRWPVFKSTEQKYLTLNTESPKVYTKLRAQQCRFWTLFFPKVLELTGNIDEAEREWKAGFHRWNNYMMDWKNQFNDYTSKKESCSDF
Kind of data set: biochemical. As for the experimental part:
as §1, §2

In data set [3] the target is T3, Aβ1–42 (Homo sapiens, UniProt P05067).
T3 construct: Recombinant human HFIP-pretreated Aβ1–42 peptide; purchased Merck Millipore Lot number 2387442
T3 sequence (P05067 672-713): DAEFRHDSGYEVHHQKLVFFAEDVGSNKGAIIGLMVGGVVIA
Kind of data set: Thioflavin-T fluorometric assay of self-induced Aβ1–42 aggregation. The note with it: 10 µM compound, 1.5 µM Aβ1–42; mean ± SD; <10 = defined as not active; read-out: Aβ1–42 Aggreg. % of inhibition. The data set is classed as biochemical. The text has this:
Mechanisms of Aβ aggregation remain unclear. Besides the self-induced assembly of Aβ, several other factors affect its aggregation, including metal ions, AChE [45], and oxidative stress. Therefore, we evaluated our compounds using the most versatile and commonly used Aβ1–42 aggregation Thioflavin T assay. Seven structurally diverse compounds were selected (one from each subseries) to test their ability to inhibit self-induced Aβ1–42 aggregation.
Thioflavin-T (ThT) fluorometric assay was performed to investigate the effect of the test compounds on the self-aggregation of Aβ1–42. […] Each sample was prepared in quadruplicate, and the DMSO was always at 3%. To quantify amyloid fibril formation, the ThT fluorescence was measured through the bottom of the plate every 180 s at an excitation wavelength of 440 nm and emission wavelength of 490 nm, with the medium continuously shaking between measurements using a 96-well microplate reader (Synergy™ H4, BioTek Instruments, Inc., Winooski, VT, USA). […] The fluorescence intensities at the plateau in the absence and presence of the test compounds were averaged, and the average fluorescence of the corresponding wells at t = 0 h was subtracted.

For data set [4] the following is noted: PAMPA-BBB; for Log Pe: 2 h at 37 °C, means of two replicates; for Prediction of BBB penetration: class from log Pe. As for the experimental part: For anti-Alzheimer drug candidates, the ability to cross the blood–brain barrier and to enter the central nervous system (CNS) is crucial to achieve their pharmacological target and activity.
The BBB-PAMPA Explorer Test System was purchased from pION Inc. The in vitro permeability through BBB-1 lipid membrane was determined for 7 commercial drugs and the tested compounds. The compounds were dissolved in DMSO (10 mM stock solution) and diluted with Prisma HT buffer (5 µL/1 mL). Then, the […] 96-well microplate was filled with solution of the tested compounds in buffer (200 µL/well). The filter membrane in acceptor 96-well microplate was impregnated with BBB-1 lipid solution (5 µL/well) and the acceptor plate was filled with Brain Sink Buffer (200 µL/well). The acceptor plate was carefully placed on the donor plate to form a sandwich that was left undisturbed for 2 h at 37 °C. After incubation, the donor plate was carefully removed. The concentration of compounds in the acceptor, the donor, and the reference wells were measured using EnSpire Multimode Microplate Reader (PerkinElmer).

For orientation: IC50 means the concentration needed to halve the response being measured. Usually inhibition stands for the relative decrease from the control value, in per cent.

Each structure is given as a SMILES string.

T1 sequence (O42275 24-633): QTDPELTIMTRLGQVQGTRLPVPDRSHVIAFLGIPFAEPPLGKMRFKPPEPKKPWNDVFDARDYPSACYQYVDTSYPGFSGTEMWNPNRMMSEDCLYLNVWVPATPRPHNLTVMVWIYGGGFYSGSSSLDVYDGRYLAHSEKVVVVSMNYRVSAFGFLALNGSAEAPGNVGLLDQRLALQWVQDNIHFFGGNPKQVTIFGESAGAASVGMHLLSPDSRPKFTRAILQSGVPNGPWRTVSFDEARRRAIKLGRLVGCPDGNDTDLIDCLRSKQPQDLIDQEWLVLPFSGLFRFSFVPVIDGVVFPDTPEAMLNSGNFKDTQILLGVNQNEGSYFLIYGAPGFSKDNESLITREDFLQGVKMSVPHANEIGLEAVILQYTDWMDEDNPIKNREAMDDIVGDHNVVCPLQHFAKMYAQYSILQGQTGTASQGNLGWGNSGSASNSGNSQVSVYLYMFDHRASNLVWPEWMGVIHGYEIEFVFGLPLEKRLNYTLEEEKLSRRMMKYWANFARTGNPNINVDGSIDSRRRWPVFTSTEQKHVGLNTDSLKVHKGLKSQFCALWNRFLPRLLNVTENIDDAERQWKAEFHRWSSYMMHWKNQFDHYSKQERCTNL

For the molecule `O=C1c2ccccc2C(=O)N1CCCCCN1CCCC1` [Compound 1, 2-(5-(Pyrrolidin-1-yl)pentyl)isoindoline-1,3-dione], the results for the IC50 in data set [1] and in data set [2] were 0.781 ± 0.009 µM and more than 50 µM, respectively.

With `O=C1c2ccccc2C(=O)N1CCCCCCN1CCCC1` [Compound 2, 2-(6-(Pyrrolidin-1-yl)hexyl)isoindoline-1,3-dione], the IC50 in data set [1] was 0.643 ± 0.006 µM; in data set [2], more than 50 µM.

As to `O=C1c2ccccc2C(=O)N1CCCCCN1CCOCC1` [Compound 5, 2-(5-Morpholinopentyl)isoindoline-1,3-dione], the IC50 in data set [1] was 18.1 ± 0.402 µM; in data set [2], more than 50 µM.

Consider `O=C1c2ccccc2C(=O)N1CCCCCCN1CCOCC1` [Compound 6, 2-(6-Morpholinohexyl)isoindoline-1,3-dione], for which the values for the IC50 in data set [1] and in data set [2] were 17.2 ± 0.474 µM and more than 50 µM, respectively.

`O=C1c2ccccc2C(=O)N1CCCCCCCN1CCOCC1` [Compound 7, 2-(7-Morpholinoheptyl)isoindoline-1,3-dione] showed an IC50 in data set [1] of 4.11 ± 0.066 µM. Moreover, in data set [2], the IC50 was more than 50 µM. Besides, the inhibition at 10 µM in data set [3] was 17.1 ± 6.13%. In addition, in data set [4], the “Log Pe” value is “–4.2” and the “Prediction of BBB penetration” value is “CNS+ (CNS+, log Pe > −4.5, high permeability (i.e., can enter the CNS))”.

`O=C1c2ccccc2C(=O)N1CCCCCCCCN1CCOCC1` [Compound 8, 2-(8-Morpholinooctyl)isoindoline-1,3-dione]: the figures for the IC50 in data set [1] and in data set [2] were 4.5 ± 0.064 µM and more than 50 µM, respectively.

As for `O=C1c2ccccc2C(=O)N1CCCCN1CCc2ccccc2C1` [Compound 9, 2-(4-(3,4-dihydroisoquinolin-2(1H)-yl)butyl)isoindoline-1,3-dione], the IC50 worked out at 5.6 ± 0.087 µM in data set [1] and 12.82 ± 0.107 µM in data set [2].

With `O=C1c2ccccc2C(=O)N1CCCCCN1CCc2ccccc2C1` [Compound 10, 2-(5-(3,4-dihydroisoquinolin-2(1H)-yl)pentyl)isoindoline-1,3-dione], the IC50 in data set [1] amounted to 1.266 ± 0.011 µM; in data set [2], 5.31 ± 0.16 µM.

On to `O=C1c2ccccc2C(=O)N1CCCCCCCN1CCc2ccccc2C1` [Compound 12, 2-(7-(3,4-Dihydroisoquinolin-2(1H)-yl)heptyl)isoindoline-1,3-dione], for which the figures for the 50% inhibitory concentration (IC50) in data set [1] and in data set [2] were 0.688 ± 0.017 µM and 1.17 ± 0.027 µM, respectively.

Turning to `O=C1c2ccccc2C(=O)N1CCCCCCCCN1CCc2ccccc2C1` [Compound 13, 2-(8-(3,4-Dihydroisoquinolin-2(1H)-yl)octyl)isoindoline-1,3-dione], the figures for the IC50 in data set [1] and in data set [2] were 0.76 ± 0.017 µM and 0.618 ± 0.009 µM, respectively. In addition, the inhibition at 10 µM in data set [3] worked out at 35.8 ± 5.39%. In addition, in data set [4], the “Log Pe” value is recorded as “–4.2”. The “Prediction of BBB penetration” value in data set [4] was “CNS+ (CNS+, log Pe > −4.5, high permeability (i.e., can enter the CNS))”.

Regarding `O=C1c2ccccc2C(=O)N1CCCCCCCCCCN1CCc2ccccc2C1` [Compound 14, 2-(10-(3,4-Dihydroisoquinolin-2(1H)-yl)decyl)isoindoline-1,3-dione], in data set [1], the IC50 was more than 50 µM and the “EeAChE inhibitory activity in words” value is recorded as “not active”. This molecule showed an IC50 in data set [2] of 1.73 ± 0.038 µM.

On to `O=C1c2ccccc2C(=O)N1CCCCCCCCCCCCN1CCc2ccccc2C1` [Compound 15, 2-(12-(3,4-Dihydroisoquinolin-2(1H)-yl)dodecyl)isoindoline-1,3-dione], for which, in data set [1], the IC50 is more than 50 µM and the “EeAChE inhibitory activity in words” value is reported as “not active”. The molecule also returned an IC50 in data set [2] of 3.66 ± 0.085 µM.

Turning to `CCN(CC)CCCCCN1CCc2ccccc2C1` [Compound 20, 5-(3,4-dihydroisoquinolin-2(1H)-yl)-N,N-diethylpentan-1-amine], the IC50 in data set [1] and in data set [2] was more than 50 µM throughout.

With `CCN(CC)CCCCCCN1CCc2ccccc2C1` [Compound 21, 6-(3,4-Dihydroisoquinolin-2(1H)-yl)-N,N-diethylhexan-1-amine], the IC50 in data set [1] and in data set [2] was more than 50 µM throughout.

On to `CCN(CC)CCCCCCCN1CCc2ccccc2C1` [Compound 22, 7-(3,4-Dihydroisoquinolin-2(1H)-yl)-N,N-diethylheptan-1-amine], for which the 50% inhibitory concentration (IC50) in data set [1] turned out to be 17.3 ± 0.401 µM; in data set [2] it was 37.1 ± 0.878 µM.

As to `CCN(CC)CCCCCCCCN1CCc2ccccc2C1` [Compound 23, 8-(3,4-Dihydroisoquinolin-2(1H)-yl)-N,N-diethyloctan-1-amine], the results for the IC50 in data set [1] and in data set [2] were 4.72 ± 0.149 µM and 14 ± 0.343 µM, respectively. Besides, the inhibition at 10 µM in data set [3] is less than 10%.

As to `CCN(CC)CCCn1ccc2ccccc21` [Compound 30, N,N-diethyl-3-(1H-indol-1-yl)propan-1-amine], the concentration for half-maximal inhibition (IC50) in data set [1] and in data set [2] was more than 50 µM throughout.

Consider `CCN(CC)CCCCn1ccc2ccccc21` [Compound 31, N,N-diethyl-4-(1H-indol-1-yl)butan-1-amine], for which the figures for the IC50 in data set [1] and in data set [2] were more than 50 µM and 26 ± 0.813 µM, respectively.

For the molecule `CCN(CC)CCCCCn1ccc2ccccc21` [Compound 32, N,N-Diethyl-5-(1H-indol-1-yl)pentan-1-amine], the results for the IC50 in data set [1] and in data set [2] were more than 50 µM and 22.6 ± 0.602 µM, respectively.

Consider `CCN(CC)CCCCCCn1ccc2ccccc21` [Compound 33, N,N-Diethyl-6-(1H-indol-1-yl)hexan-1-amine], for which the IC50 in data set [1] was more than 50 µM; in data set [2], 28.7 ± 0.723 µM.

Turning to `CCN(CC)CCCCCCCn1ccc2ccccc21` [Compound 34, N,N-Diethyl-7-(1H-indol-1-yl)heptan-1-amine], the IC50 was 22.2 ± 0.424 µM in data set [1] and 1.47 ± 0.593 µM in data set [2].

With `CCN(CC)CCCCCCCCn1ccc2ccccc21` [Compound 35, N,N-Diethyl-8-(1H-indol-1-yl)octan-1-amine], the IC50 in data set [1] was determined as 9.56 ± 0.289 µM; in data set [2], 3.47 ± 0.1 µM. In addition, the inhibition at 10 µM in data set [3] amounted to 16.6 ± 2.74%.

Regarding `O=C1c2ccccc2S(=O)(=O)N1CCCCCNCc1ccccc1F` [Compound 39, 2-(5-(2-fluorobenzylamino)pentyl)benzo[d]isothiazol-3(2H)-one 1,1-dioxide], it took 0.15 ± 0.003 µM to reach half-maximal inhibition in data set [1] (IC50). In addition, in data set [2], the IC50 is more than 50 µM. Further, the inhibition at 10 µM in data set [3] came out at 12.3 ± 2.63%. For the same molecule, in data set [4], the “Log Pe” value was “–4.0” and the “Prediction of BBB penetration” value is given as “CNS+ (CNS+, log Pe > −4.5, high permeability (i.e., can enter the CNS))”.

With `O=C1c2ccccc2S(=O)(=O)N1CCCCCCNCc1ccccc1F` [Compound 40, 2-(6-(2-fluorobenzylamino)hexyl)benzo[d]isothiazol-3(2H)-one 1,1-dioxide], the half-maximal inhibitory concentration (IC50) in data set [1] is 1.14 ± 0.015 µM; in data set [2], more than 50 µM.

On to `O=C1c2ccccc2S(=O)(=O)N1CCCCCCCNCc1ccccc1F` [Compound 41, 2-(7-(2-fluorobenzylamino)heptyl)benzo[d]isothiazol-3(2H)-one 1,1-dioxide], for which the IC50 in data set [1] came out at 0.735 ± 0.009 µM; in data set [2], 4.97 ± 0.127 µM.

In the case of `O=C1c2ccccc2S(=O)(=O)N1CCCCCCNCc1cccc(Cl)c1` [Compound 43, 2-(6-(3-chlorobenzylamino)hexyl)benzo[d]isothiazol-3(2H)-one 1,1-dioxide], the IC50 in data set [1] was 0.596 ± 0.006 µM; in data set [2] it was 6.54 ± 0.163 µM.

`O=C1c2ccccc2S(=O)(=O)N1CCCCCCCNCc1cccc(Cl)c1` [Compound 44, 2-(7-(3-chlorobenzylamino)heptyl)benzo[d]isothiazol-3(2H)-one 1,1-dioxide]: the IC50 in data set [1] was determined as 0.923 ± 0.012 µM; in data set [2] it was 2.46 ± 0.032 µM.

As to `CC(=O)[C@H]1CC[C@H]2[C@@H]3CCC4=CC(=O)CC[C@]4(C)[C@H]3CC[C@]12C` [Progesterone, reference compound], the “Prediction of BBB penetration” value in data set [4] is recorded as “CNS+ (CNS+, log Pe > −4.5, high permeability (i.e., can enter the CNS))”.

As for `CC(C)NCC(O)COc1cccc2ccccc12` (stereo not shown) [Propranolol, reference compound], the “Prediction of BBB penetration” value in data set [4] is listed as “CNS+ (CNS+, log Pe > −4.5, high permeability (i.e., can enter the CNS))”.

On to `Cn1c(=O)c2[nH]cnc2n(C)c1=O` [Theophylline, reference compound], for which the “Log Pe” value in data set [4] was “–6.3”.
